Reference: patent publication US10010612B2 (Indivior UK Limited, priority 2007, dated 2018)

Key:
[1] = powder in polypropylene syringes, 5.8 to 31 KGy
Method: The eight formulations prepared for testing were sterilized in glass vials and gamma resistant polypropylene copolymer syringes using various dose levels of irradiation.
The dose level was 30 to 33 KGy for each of the samples.
Syringes and glass vials obtained from the gamma radiation testing were analyzed with the control formulations.
These were loaded into gamma-irradiation polypropylene syringes and capped.

[2] = limit of solubility
[3] = Calculated risperidone release and plasma levels in dogs from in vitro release (in vitro to in vivo correlation); conditions: suggested by calculated release and apomorphine data
[4] = Risperidone release from ATRIGEL implants in rats (implant retrieval; 24-hour burst, 14-day and 28-day studies); format: in vivo, Sprague-Dawley rats; conditions: 28 days
Method: The retrieved implants and tissue were placed in a −86° C. freezer for at least 1 hour. The frozen samples were lyophilized for at least 4 hours. The dry samples were minced with scissors, which were cleaned after each sample to minimize cross-contamination. The samples were minced until powder-like. Approximately 5 mL of 70:30 dimethylsulfoxide/methanol with 1% polyethyleneimine extraction solvent was added to each sample. The samples were mixed overnight at about 200 rpm at 37° C. on the orbital shaker. The samples were sonicated for 10 minutes. 1.5 mL of the extract was loaded into a 3 mL lure lock syringe and filtered through a 0.2 μm pore size filter into a clean test tube. 1 mL of the filtrate was placed into a clean test tube and 4 mL of 50:50 acetonitrile/H2O was added. The test tube was vortexed for 30 seconds. About 2 mL of the solution was loaded into a 3 mL lure lock syringe and filtered into an High Performance Liquid Chromatography vial.

Cc1nc2n(c(=O)c1CCN1CCC(c3noc4cc(F)ccc34)CC1)CCCC2 [Risperidone, 4-[2-[4-(6-fluorobenzo[d]isoxazol-3-yl)-1-piperidyl]ethyl]-3-methyl-2,6-diazabicyclo[4.4.0]deca-1,3-dien-5-one]
color after gamma irradiation [1]: turned beige at the lowest level of irradiation
solubility in N-methyl-2-pyrrolidone [2]: up to 5 % by weight
minimum daily dose of risperidone needed in dogs for a biological response [3]: about 0.6 mg
stability of risperidone in ATRIGEL implants [4]: stable in ATRIGEL® implants for 28 days
